This is an account of results in patent US20100105666A1, “TRIAZABENZO (A)NAPHTHO(2,1,8-CDE) AZULENE COMPOUNDS” (priority 2007, published 2010).

The conditions of data set [1]: compound 10^−7M, NADPH, 0-60 minutes; for % metabolic stability predicted using hepatic microsomes, Human: human hepatic microsomes 0.33 mg of prot/ml; for % metabolic stability predicted using hepatic microsomes, Mouse: mouse hepatic microsomes 0.33 mg of prot/ml; for % metabolic stability predicted using hepatic microsomes, Rat: rat hepatic microsomes 0.33 mg of prot/ml. As for the experimental part: The predicted metabolic stability is tested by incubation of the compounds at a concentration of 10^−7M in the presence of mouse, rat or human hepatic microsomes (0.33 mg of prot/ml). After addition of NADPH (nicotinamide adenine dinucleotide phosphate, reduced form), samples are taken at 0, 5, 15, 30 and 60 minutes. The enzymatic reaction is stopped using methanol (V/V). The protein is precipitated by centrifugation and the supernatant is analysed by LC-MS-MS.

The subject of data set [2] is tyrosine hydroxylase (TH) protein in the locus coeruleus (LC). Nature of the data set: Induction of tyrosine hydroxylase in the locus coeruleus after a single i.p. injection. It counts as in vivo. Conditions: three days after injection, Balb/C mouse; for amount of TH in LC section 1, % relative to the mean value of the control group: LC section 1 (anterior-to-posterior), i.p. 20 mg/kg; for amount of TH in LC section 2, % relative to the mean value of the control group: LC section 2, i.p. 20 mg/kg; for amount of TH in LC section 3, % relative to the mean value of the control group: LC section 3, i.p. 20 mg/kg; for amount of TH in LC section 4, % relative to the mean value of the control group: LC section 4, i.p. 20 mg/kg; for amount of TH in LC section 5, % relative to the mean value of the control group: LC section 5, i.p. 20 mg/kg; for amount of TH in LC section 6, % relative to the mean value of the control group: LC section 6, i.p. 20 mg/kg; for amount of TH in LC section 7, % relative to the mean value of the control group: LC section 7, i.p. 20 mg/kg; for amount of TH in LC section 8, % relative to the mean value of the control group: LC section 8, i.p. 20 mg/kg. From the text:
An investigation is made, among the compounds, for the capability of bringing about an increase in the tyrosine hydroxylase (TH) protein in the locus coeruleus (LC) of the brain of the Balb/C mouse.
The animals used are male mice of the pure Balb/C strain (Charles River Laboratories) aged 7 to 8 weeks at the time of treatment.
The mice are given a single injection, by the intraperitoneal route, of the compound under test, dissolved in 0.04M HCl solution (corresponding control: […]), if the compound is sufficiently soluble, or in olive oil 90%/DMSO 10% (corresponding control: olive oil 90%/DMSO 10%) for compounds that are insoluble in an aqueous medium.
Three days after the injection of each compound, all the animals are sacrificed by decapitation. The extracted brains are then frozen in liquid nitrogen and stored at −80° C.
Coronal sections 8 microns thick are then taken along the posterior-anterior axis of the LC and fixed. The sections are transferred onto Immobilon-P membranes. The TH is measured by immunodetection and image analysis.

For data set [3], the target named is 5HT receptors (type 5HT2A) (Homo sapiens, UniProt P28223). Nature of the data set: Affinity for receptors, displacement of labelled specific ligand: 5HT2A. It is filed as binding. From the text: The receptor affinity was accordingly studied for 28 conventional receptors.
5HT receptors (type 5HT2A), sequence (P28223 whole entry): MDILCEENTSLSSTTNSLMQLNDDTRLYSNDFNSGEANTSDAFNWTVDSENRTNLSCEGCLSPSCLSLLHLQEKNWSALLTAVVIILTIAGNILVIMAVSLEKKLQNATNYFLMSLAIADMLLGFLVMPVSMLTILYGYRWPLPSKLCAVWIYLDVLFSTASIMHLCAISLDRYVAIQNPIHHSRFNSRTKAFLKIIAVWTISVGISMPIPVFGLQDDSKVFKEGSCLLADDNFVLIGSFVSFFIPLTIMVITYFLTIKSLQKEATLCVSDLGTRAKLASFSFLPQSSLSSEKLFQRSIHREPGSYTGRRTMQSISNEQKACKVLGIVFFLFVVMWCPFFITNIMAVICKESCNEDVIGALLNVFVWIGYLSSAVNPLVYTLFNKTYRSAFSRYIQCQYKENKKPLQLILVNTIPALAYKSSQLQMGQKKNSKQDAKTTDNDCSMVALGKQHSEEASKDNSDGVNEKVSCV

Take `O=C1NC(=O)N2c3ccccc3C3CCN4CCCC1C4C32` (single isomer, unassigned) [Example 6, (5aS,12aR,12bR,12cR)— or (5aR,12aS,12bS,12cS)-2,3,5a,12a,12b,12c-Hexahydro-1H,4H-3a,9b,11-triazabenzo[a]naphtho[2,1,8-cde]azulene-10,12(5H,11H)-dione (enantiomer β)]: in data set [1], the “% metabolic stability predicted using hepatic microsomes, Human” value is listed as 71%; the “% metabolic stability predicted using hepatic microsomes, Mouse” value is 100%; the “% metabolic stability predicted using hepatic microsomes, Rat” value is listed as 76%.

With “(5aRS,12aSR,12bSR,12cSR)-7-Chloro-2,3,5a,12a,12b,12c-hexahydro-1H,4H-3a,9b,1′-triazabenzo[a]naphtho[2,1,8-cde]azulene-10,12(5H,11H)-dione [Example 2]”, in data set [2], the “amount of TH in LC section 1, % relative to the mean value of the control group” value worked out at 53%; the “amount of TH in LC section 2, % relative to the mean value of the control group” value is 54%; the “amount of TH in LC section 3, % relative to the mean value of the control group” value was found to be 46%; the “amount of TH in LC section 4, % relative to the mean value of the control group” value came out at 35%. For the same compound, in data set [2], the “amount of TH in LC section 5, % relative to the mean value of the control group” value came out at 25%; the “amount of TH in LC section 6, % relative to the mean value of the control group” value was 14%; the “amount of TH in LC section 7, % relative to the mean value of the control group” value is 5%; the “amount of TH in LC section 8, % relative to the mean value of the control group” value is reported as 3%.

As for `O=C1NC(=O)n2c3c(c4ccccc42)CCN2CCCC1C32` (racemic) [Example 7, (12aRS,12bRS)-2,3,12a,12b-Tetrahydro-1H,4H-3a,9b,11-triazabenzo[a]naphtho[2,1,8-cde]azulene-10,12(5H,11H)-dione], the “% inhibition 5HT2A” value in data set [3] (concentration 10^−5 M) amounted to 96%. Further, in data set [3] (concentration 10^−7 M), the “% inhibition 5HT2A” value was 34%. In addition, in data set [2], the “amount of TH in LC section 1, % relative to the mean value of the control group” value worked out at 63%; the “amount of TH in LC section 2, % relative to the mean value of the control group” value was found to be 67%; the “amount of TH in LC section 3, % relative to the mean value of the control group” value is 48%; the “amount of TH in LC section 4, % relative to the mean value of the control group” value is on record as 47%. In data set [2], the “amount of TH in LC section 5, % relative to the mean value of the control group” value is reported as 43%; the “amount of TH in LC section 6, % relative to the mean value of the control group” value is listed as 23%; the “amount of TH in LC section 7, % relative to the mean value of the control group” value is given as 7%; the “amount of TH in LC section 8, % relative to the mean value of the control group” value stood at 6%.

`O=C1NCN2c3ccc(Cl)cc3[C@H]3CCN4CCC[C@H]1[C@H]4[C@H]32` (racemic) [Example 1, (5aRS,12aSR,12bSR,12cSR)-7-Chloro-2,3,4,5,5a,10,11,12a,12b,12c-decahydro-1H,12H-3a,9b,11-triazabenzo[a]naphtho[2,1,8-cde]azulen-12-one] came in with a melting point above 250 °C.

On to `O=C1NC(=O)n2c3c(c4cc(Cl)ccc42)CCN2CCCC1C32` (racemic) [Example 3, (12aRS,12bRS)-7-Chloro-2,3,12a,12b-tetrahydro-4H,4H-3a,9b,11-triazabenzo[a]naphtho[2,1,8-cde]azulene-10,12(5H,11H)-dione], for which, in data set [2], the “amount of TH in LC section 1, % relative to the mean value of the control group” value came out at 55%; the “amount of TH in LC section 2, % relative to the mean value of the control group” value is 58%; the “amount of TH in LC section 3, % relative to the mean value of the control group” value was determined as 47%; the “amount of TH in LC section 4, % relative to the mean value of the control group” value stood at 48%. In addition, in data set [2], the “amount of TH in LC section 5, % relative to the mean value of the control group” value came out at 33%; the “amount of TH in LC section 6, % relative to the mean value of the control group” value worked out at 19%; the “amount of TH in LC section 7, % relative to the mean value of the control group” value amounted to 5%; the “amount of TH in LC section 8, % relative to the mean value of the control group” value is 3%.

As for `O=C1NC(=O)N2c3ccccc3[C@H]3CCN4CCC[C@H]1[C@H]4[C@H]32` (racemic) [Example 4, (5aRS,12aSR,12bSR,12cSR)-2,3,5a,12a,12b,12c-Hexahydro-1H,4H-3a,9b,11-triazabenzo[a]naphtho[2,1,8-cde]azulene-10,12(5H,11H)-dione], the melting point is 255 °C. Also, in data set [2], the “amount of TH in LC section 1, % relative to the mean value of the control group” value is 88%; the “amount of TH in LC section 2, % relative to the mean value of the control group” value is reported as 78%; the “amount of TH in LC section 3, % relative to the mean value of the control group” value is on record as 70%; the “amount of TH in LC section 4, % relative to the mean value of the control group” value amounted to 58%. For the same compound, in data set [2], the “amount of TH in LC section 5, % relative to the mean value of the control group” value stood at 27%; the “amount of TH in LC section 6, % relative to the mean value of the control group” value amounted to 14%; the “amount of TH in LC section 7, % relative to the mean value of the control group” value was 9%; the “amount of TH in LC section 8, % relative to the mean value of the control group” value is 3%.

Consider `O=C1NC(=O)N2c3ccccc3C3CCN4CCCC1C4C32` (single isomer, unassigned) [Example 5, (5aS,12aR,12bR,12cR)— or (5aR,12aS,12bS,12cS)-2,3,5a,12a,12b,12c-Hexahydro-1H,4H-3a,9b,11-triazabenzo[a]naphtho[2,1,8-cde]azulene-10,12(5H,11H)-dione (enantiomer α)], for which, in data set [1], the “% metabolic stability predicted using hepatic microsomes, Human” value was 75%; the “% metabolic stability predicted using hepatic microsomes, Mouse” value was 100%; the “% metabolic stability predicted using hepatic microsomes, Rat” value is reported as 90%.

By melting point is commonly meant the temperature of the solid-liquid transition.
